Measurements taken from US20120122727A1, “IN VITRO METHOD FOR PREDICTING WHETHER A COMPOUND IS GENOTOXIC IN VIVO” (priority 2009, published 2012).

Key:
[1] = test system: primary mouse hepatocytes
[2] = test system: primary mouse hepatocytes; assay: Gene expression in primary mouse hepatocytes, GTX vs non-GTX (four-gene classifier, 24 h)
[3] = test system: primary mouse hepatocytes; assay: Gene expression (Affymetrix Mouse Genome 430 2.0) in primary mouse hepatocytes, true vs false GTX, 24 h and 48 h

Mitomycin C [MitC]
Gene expression data AF204959 (Cyp3a25 /// LOC622249) [1]: 0.8169 | score 1700007K13RIK [2]: 1 | score DDIT4L [2]: 1 | score GAS2L3 [2]: 1 | score SPC25 [2]: 1 | Gene expression AA561726 average [3]: −4.372 | Gene expression AF000969 average [3]: −3.3606 | Gene expression AF022072 average [3]: −3.37 | Gene expression AF033112 average [3]: 2.219 | Gene expression AF055573 average [3]: −2.916 | Gene expression AF069954 average [3]: 2.26 | Gene expression AF297615 average [3]: 1.841 | Gene expression AF335325 average [3]: 1.755 | Gene expression AI594683 average [3]: 4.611 | Gene expression AI747296 average [3]: −2.056 | Gene expression AK005731 average [3]: 6.089 | Gene expression AK007854 average [3]: 1.5 | Gene expression AK010447 average [3]: −1.6388 | Gene expression AK010738 average [3]: 1.98 | Gene expression AK014608 average [3]: 2.8746 | Gene expression AK017734 average [3]: 1.835 | Gene expression AK018383 average [3]: 0.994 | Gene expression AK019979 average [3]: −3.757 | Gene expression AV095209 average [3]: −2.78 | Gene expression AV141095 average [3]: −2.411 | Gene expression AV173869 average [3]: −2.2889 | Gene expression AV216768 average [3]: −4.149 | Gene expression AV219418 average [3]: 4.168 | Gene expression AV221299 average [3]: −3.71 | Gene expression AV246296 average [3]: 1.4788 | Gene expression AV251625 average [3]: 2.477 | Gene expression AV254764 average [3]: 1.411 | Gene expression AV327248 average [3]: 4.918 | Gene expression BB009155 average [3]: 2.9201 | Gene expression BB027848 average [3]: 1.879 | Gene expression BB043558 average [3]: 2.332 | Gene expression BB046347 average [3]: 1.35 | Gene expression BB140436 average [3]: −1.601 | Gene expression BB204486 average [3]: −4.144 | Gene expression BB223872 average [3]: 2.201 | Gene expression BB246912 average [3]: −1.866 | Gene expression BB275142 average [3]: 2.282 | Gene expression BB458460 average [3]: −2.7207 | Gene expression BB463610 average [3]: 2.728 | Gene expression BB730977 average [3]: −2.36 | Gene expression BB743970 average [3]: 3.5588 | Gene expression BB770528 average [3]: 2.0332 | Gene expression BB781615 average [3]: 0.8952 | Gene expression BC003284 average [3]: 2.093 | Gene expression BC004827 average [3]: −3.639 | Gene expression BC005552 average [3]: −1.342 | Gene expression BC006713 average [3]: 1.2958 | Gene expression BC010318 average [3]: −1.729 | Gene expression BC012247 average [3]: 2.2674 | Gene expression BC012955 average [3]: −2.241 | Gene expression BC013893 average [3]: 1.864 | Gene expression BC017615 average [3]: −3.947 | Gene expression BC019379 average [3]: −2.7493 | Gene expression BC019882 average [3]: 2.442 | Gene expression BC021352 average [3]: 3.121 | Gene expression BC022148 average [3]: 2.668 | Gene expression BC025169 average [3]: −3.296 | Gene expression BC026131 average [3]: −0.9986 | Gene expression BC027026 average [3]: 2.873 | Gene expression BC027121 average [3]: 2.742 | Gene expression BC027185 average [3]: 2.115 | Gene expression BE956581 average [3]: 3.68 | Gene expression BF719766 average [3]: 2.112 | Gene expression BG065754 average [3]: 1.3079 | Gene expression BG066491 average [3]: −1.929 | Gene expression BG076151 average [3]: 2.5119 | Gene expression BG076333 average [3]: −1.87 | Gene expression BG797099 average [3]: 2.6244 | Gene expression BG967046 average [3]: 1.305 | Gene expression BI651416 average [3]: 2.2069 | Gene expression BI966443 average [3]: 4.094 | Gene expression BM198879 average [3]: 1.928 | Gene expression BM200015 average [3]: 1.702 | Gene expression BM230508 average [3]: 2.571 | Gene expression BM936480 average [3]: 2.006 | Gene expression BQ174991 average [3]: −2.777 | Gene expression L21027 average [3]: −4.612 | Gene expression NM_007556 average [3]: −4.012 | Gene expression NM_007980 average [3]: 2.9391 | Gene expression NM_007987 average [3]: 2.2406 | Gene expression NM_008522 average [3]: 5.9249 | Gene expression NM_008935 average [3]: −3.601 | Gene expression NM_009897 average [3]: 4.658
